This is an account of results in patent US20070148643A1, “Treatment of Huntington's Disease with EPA” (priority 2002, published 2007).

The test system of experiment [1] is patients with genetically-confirmed HD. Nature of the experiment: one year randomised placebo-controlled trial of ethyl-EPA in HD, total motor score (TMS) subscale of the UHDRS. Type of experiment: in vivo, human. How it is done: 135 patients with genetically-confirmed HD were entered into a one year trial. They were randomised to receive either 2 g/day of ethyl-EPA or an identical-appearing placebo. They were evaluated at baseline, six months and 12 months on the total motor score (TMS) subscale of the Unified Huntington's Disease Rating Scale (UHDRS). The UHDRS is the standard rating scale which is used to monitor the development of HD. The TMS is the component of the UHDRS which changes most reliably, rapidly and consistently and is therefore appropriate for monitoring the outcome of clinical trials. At the end of one year, change in TMS was compared in the placebo group and the ethyl-EPA group. […] However, when patients were stratified on the basis of their CAG repeat numbers, a dramatic benefit of ethyl-EPA was uncovered. […] Placebo patients with CAG repeat numbers 45 and below deteriorated by an average of 5.3%. In contrast, the same group of patients on ethyl-EPA improved over the year by 19.3%. This difference was highly statistically significant on either analysis of covariance or on chi square testing. […] Previously the best that had been hoped for in neurodegenerative diseases like HD was a slowing of deterioration rather than any actual improvement. […] Putting it another way, the treated patients had gained at least four and a half years of useful life.

For experiment [2], the system named is severely disabled patients in the final stages of Huntington's disease. The following applies: 2 g/day, 6 months, cited from earlier work.

Structures are written as SMILES.

With `CC/C=C\C/C=C\C/C=C\C/C=C\C/C=C\CCCC(=O)OCC` [ethyl-EPA, ethyl ester of eicosapentaenoate], the “proportion of patients improving on TMS” value in experiment [1] (2 g/day, CAG repeats 45 and below) is given as “great majority of patients on ethyl-EPA actually improved”. Further, the “improvement in TMS over the year, patients with CAG repeat numbers 45 and below” value in experiment [1] (2 g/day, CAG repeats 45 and below, placebo deteriorated by 5.3%) is given as 19.3%. The “benefit versus placebo, patients with CAG repeat numbers of 45 or below” value in experiment [1] (2 g/day, CAG repeats 45 or below (below 45)) is “large benefit”. For the same molecule, the “change in TMS versus placebo, patients with CAG repeat number of 46 or more” value in experiment [1] (2 g/day, CAG repeats 46 or more) was “did not show any difference at all between placebo and ethyl-EPA”. For the same molecule, the “change in TMS versus placebo, all patients” value in experiment [1] (2 g/day, all patients (not stratified)) is “better outcome on ethyl-EPA than on placebo but this was not statistically significant”. For the same molecule, in experiment [1] (CAG repeats 45 and below), the “improvement relative to the change in patients on placebo over one year” value was “more than three and a half times more”; the “separation of EPA and placebo patients in years of disease progression after one year” value was “more than four and a half years”. For the same molecule, the “clinical course (abnormal movements, emotional lability and irritability, memory and cognitive function)” value in experiment [2] (three patients on ethyl-EPA, four on placebo) is “all three patients who improved were found to be taking ethyl-EPA”. The “lateral ventricle size by MRI” value in experiment [2] (two patients on ethyl-EPA, beginning versus end of study) is reported as “reduction in lateral ventricle size”.
